In series [1] the test system is glioblastoma. The note with it: prior art, J. Med. Chem. 2012, 55, 2196-2211; cited from earlier work.
Series [2] in a line: Thermogravimetric analysis (TGA). The class given is physicochemical. Conditions: about 25° C. to 250° C., before and after melting. As for the experimental part:
The analyses were performed on a Perkin Elmer Pyris 1 TGA. The samples (few milligrams of product obtained by carrying out the above scheme 5) were placed in an aluminum pan and the cover was crimped. Analyses were performed under nitrogen purge (20 mL/min) and the cover was punctured at the beginning of the analysis.
Temperature scans were carried out between 25° C. and 300° C. at a speed of 10°/min (unless stated otherwise).

Series [3] can be described thus: Dynamic vapor sorption (DVS) analysis. In kind it is physicochemical. As for the experimental part: Dynamic Vapor Sorption (DVS)
The analyses were performed on a Surface Measurements System DVS Intrinsic. The samples (few milligrams of product obtained by carrying out the above scheme 5) were placed in an open aluminum pan. Analyses were performed at 25° C.
Relative humidity was scanned between 0% RH and 95% RH with 10% RH steps (40-0-95-0-95; unless stated otherwise). The stability criterion was a variation in mass lower than 0.002% on a 5 min. window (with a minimum step time of 10 min and a maximum of 100 min).

The nature of series [4]: Stability of polymorphic forms (maturation at room temperature, cross-seeding tests). The class given is physicochemical. The note with it: 25° C., several days of maturation. Here is the method:
Other polymorphic forms could be obtained by recrystallizing out from specific organic solvents starting from the crystalline form of the invention. However, said other polymorphic forms are not stable after several days of maturation at room temperature (more specifically at 25° C.).

Series [5] is described as follows: Compression test followed by X-ray diffraction. The class given is physicochemical. Conditions: pressure of 10 tons for 5 min, 13 mm die. Here is the method:
Compression Test The sample was introduced into a die with 13 mm diameter (m=103.83 mg). The sample was then compressed with a hydraulic press at a pressure of 10 tons for 5 minutes, and immediately analyzed by X-ray diffraction.

With `O=[P@@]1(c2ccccc2)O[C@H](COCc2ccccc2)[C@@H](OCc2ccccc2)[C@H](OCc2ccccc2)[C@H]1O` [PST3.1a], the “Relative potency among the four diastereoisomers” value in series [1] is “most potent diastereoisomer”.
As for `O=P1(c2ccccc2)OC(COCc2ccccc2)C(OCc2ccccc2)C(OCc2ccccc2)C1O` (centres unmarked) [crystalline form of compound I, 3-Hydroxy-4,5-bis-benzyloxy-6-benzyloxymethyl-2-phenyl-2-oxo-2λ5-[1,2]oxaphosphinane], the “Weight loss by TGA” value in series [2] is “no significant weight loss”. For the same compound, the Hygroscopicity result in series [3] (DVS, 0% RH to 95% RH, 25° C.) is listed as “non-hygroscopic”. Further, the DVS weight loss result in series [3] (drying steps, 25° C., relative humidity 0% RH to 95% RH) was “lower than 0.1%”. For the same compound, the “XRPD pattern after DVS analysis compared with before” value in series [3] (sample kept at 95% RH on the final step) is “same profile”. The “DVS weight gain with respect to the initial weight” value in series [3] (steps at higher relative humidity conditions, 25° C.) amounted to 0.1%. The “Relative stability of polymorphic form” value in series [4] was “most stable form”. For the same compound, in series [5], the “Solid state stability after compression (diffraction pattern vs starting material)” value was “same peaks”.

(Values after patent US10597414B2, “Crystalline polymorphic form of 3-hydroxy-4,5-bis-benzyloxy-6-benzyloxymethyl-2-phenyl-2-OXO-2λ5-[1,2]oxaphosphinane” (PHOST'IN, priority 2016, dated 2020).)
